# Reference: patent US11039995B2, “Topical compositions for reducing the effects of aging” (Samson Pharma, LLC, priority 2013, dated 2021)
# How the values were obtained:
# [1] = cited from earlier work
# [2] = tested on: promyelocytic leukemia cells; conditions: relative to all-trans retinoic acid; cited from earlier work
# skin of albino rabbits = experiment: Acute dermal irritation/corrosion (OECD 404), single topical 4-hour application; format: in vivo
# Method: A study was conducted based upon the following references: OECD 404, Organization for Economic Co-Operation and Development (OECD), Guidelines for the Testing of Chemicals, “Acute Dermal Irritation/Corrosion”, adopted 24 Apr. 2002. ISO 10993-12, 2012, Biological Evaluation of Medical Devices—Part 12: Sample Preparation and Reference Materials. ISO/IEC 17025, 2005. General Requirements for the Competence of Testing and Calibration Laboratories.
# The skin of three albino rabbits was prepared for testing by clipping the skin of the trunk free of hair at the application sites within 24 hours of the test. The sites of application were not abraded deliberately or accidentally during preparation. Tamibarotene was administered at dose levels of 0.02%, 0.04%, and 0.08% in 60% DMSO. The animals were treated by introducing each dose level (0.5 ml) under gauze patches at individual application sites. The control (0.5 ml of 60% DMSO) was applied to a fourth site.
# As it was suspected that tamibarotene might produce severe irritancy/corrosion, a single animal test was initially employed. Test patches of each dose level and control were applied. After three minutes, the skin sites were examined by gently lifting the bandage to examine the skin without bandage removal. […] If a corrosion effect was observed after three minutes or one hour, the test was to be immediately terminated.
# Because an irritation or corrosive effect was not observed in the initial test after one hour, the response was confirmed using two additional animals dosed with each dose level and control at individual application sites for four hours. At the end of the exposure period, the wrapping was removed from and the skin washed with USP sterile Water for Injection (SWFI) to remove any test substance still remaining. […] Observations were scored according to the Draize Scale for Scoring Skin Reactions.
# [3] = clinical trials; cited from earlier work
Compound,plasma concentration during daily administration [1],potency as an inducer of differentiation compared to ATRA [2],"irritation or corrosive effect after one hour (skin of albino rabbits; initial single animal test, 0.02%, 0.04%, 0.08% in 60% DMSO, after one hour)","serious skin reaction after three minutes (skin of albino rabbits; initial single animal, 0.02%, 0.04%, 0.08% in 60% DMSO, 0.5 ml under gauze patches, examined after three minutes)","primary dermal irritation classification (skin of albino rabbits; single topical 4-hour application, dose levels 0.02%, 0.04%, 0.08% in 60% DMSO)","body weight (skin of albino rabbits; three albino rabbits, during the study)","signs of erythema or edema (Draize Scale) (skin of albino rabbits; three rabbits, 4-hour exposure, 0.02%, 0.04%, 0.08% in 60% DMSO, observed 60 minutes, 24, 48, 72 hours after bandage removal)",adverse side effects compared to ATRA [3]
"CC1=C(/C=C/C(C)=C/C=C/C(C)=C/C(=O)O)C(C)(C)CCC1 [ATRA, all-trans retinoic acid]",declines considerably,,,,,,,
"CC1(C)CCC(C)(C)c2cc(NC(=O)c3ccc(C(=O)O)cc3)ccc21 [tamibarotene, Benzoic acid,4-[[(5,6,7,8-tetrahydro-5,5,8,8-tetramethyl-2-naphthalenyl)amino]carbonyl]—]",sustains plasma level,several times more potent,not observed,no serious skin reaction was observed,non-irritant,gained weight,None of the test sites presented any signs of erythema or edema,milder
